From EP0745597A2, “Novel melatonergic indanyl piperazines or homopiperazines” (BRISTOL-MYERS SQUIBB COMPANY, priority 1995, dated 1996)
Where “and” joins values, the source holds several entries; their conditions need not be identical. Equal values may be shown once.

biological target: T1, human ML1B receptor (Homo sapiens, UniProt P49286); assay: Measurement of binding to melatonergic receptors (2-[125I]-iodomelatonin, membranes of transfected NIH 3T3 cells); details: 2-[125I]-Iodomelatonin 200 pM, 37 °C for 1 hour, NIH 3T3 cells stably transfected with the human ML1B receptor; read-out: Melatonin Binding
T1 construct: host or cells: NIH 3T3 cells, stably transfected; membrane homogenates
T1 sequence (P49286 1-362): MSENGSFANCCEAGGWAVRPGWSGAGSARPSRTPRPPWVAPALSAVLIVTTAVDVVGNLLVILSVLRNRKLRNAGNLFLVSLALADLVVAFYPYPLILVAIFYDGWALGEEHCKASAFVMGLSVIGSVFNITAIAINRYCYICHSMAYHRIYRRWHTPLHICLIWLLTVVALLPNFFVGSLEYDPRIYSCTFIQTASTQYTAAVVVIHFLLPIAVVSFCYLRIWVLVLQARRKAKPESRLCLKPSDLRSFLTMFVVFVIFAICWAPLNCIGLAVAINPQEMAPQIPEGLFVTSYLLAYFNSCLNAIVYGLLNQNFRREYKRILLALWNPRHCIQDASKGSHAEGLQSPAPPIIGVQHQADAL
Experimental: The melatonergic binding affinities of various compounds of Formula I were determined by the method of Reppert, S. M., Weaver, D. R., and Ebisawa, R. (Neuron, Volume 13, 1177-1185, 1994). The assays were incubated at 37 °C for 1 hour, and the reaction was terminated by filtration. The filters were washed with wash buffer. […] The reagents, membrane and other techniques used in the melatonergic binding assays are more fully described below: • 1. Reagents: • (a) 50 mM Tris buffer containing 12.5 mM MgCl2, and 2mM EDTA, pH 7.4 at 37 °C. • (b) Wash buffer: 20 mM Tris base containing 2 mM MgCl2. pH 7.4 at room temperature. • (c) Melatonin (10^-5 M final concentration). • (d) 2-[^125I]-Iodomelatonin, 200 pM final concentration Source: NEN • 2. Membrane preparation: NIH 3T3 cells stably transfected with the human ML1B receptor were obtained from S.M. Reppert and maintained. Cells were pelleted when confluent. The supernatant was discarded and the pellets frozen. For preparing membrane homogenates, the pellets are thawed on ice and resuspended in TME buffer, Tris base, MgCl2, EDTA (pH 7.4 at 37 °C ), supplemented with aprotinin, leupeptin, and […]. The cells were then homogenized and centrifuged. The resulting pellet was resuspended with a Dounce homogenizer in TME and frozen. At assay, a small aliquot was thawed on ice and resuspended in TME buffer. […] These compounds are considered active.

**Q.** With `CCNC(=O)N1CCN(C2CCc3ccc(OC)cc32)CC1` (single isomer, unassigned; (-)) [(-)-N-Ethyl-4-(6-methoxy-indan-1-yl)piperazine-1-carboxamide] as the compound, how does the IC50 read?
**A.** The IC50 was less than 10 nM.

**Q.** Which IC50 does the source give for `C=C(C)C(=O)N1CCN(C2CCc3ccc(OC)cc32)CC1` (stereo not shown) [1-[(1-Methyl-ethenyl)carbonyl]-4-(6-methoxy-indan-1-yl)piperazine] here?
**A.** The IC50 was less than 10 nM.

**Q.** Which IC50 does the source give for `COc1ccc2c(c1)C(N1CCN(C(=O)c3ccc(Br)o3)CC1)CC2` (single isomer, unassigned; (-)) [(-)-1-[(5-Bromo-furan-2-yl)carbonyl]-4-(6-methoxy-indan-1-yl)piperazine] here?
**A.** Its IC50 is 10 to 100 nM.

**Q.** `CCNC(=O)N1CCCN(C2CCc3ccc(OC)cc32)CC1` (stereo not shown) [N-Ethyl-4-(6-methoxy-indan-1-yl)homopiperazine-1-carboxamide] was tested. Which IC50 did it give?
**A.** The IC50 was 10 to 100 nM.

**Q.** With `COc1ccc2c(c1)C(N1CCN(C(=O)c3ccccc3O)CC1)CC2` (single isomer, unassigned; (-)) [(-)-1-(2-Hydroxybenzoyl)-4-(6-methoxy-indan-1-yl)piperazine] as the compound, how does the IC50 read?
**A.** Its IC50 is less than 10 nM.

**Q.** `CCCOc1ccc2c(c1)C(N1CCN(C(=O)C3CC3)CC1)CC2` (stereo not shown) [1-(Cyclopropylcarbonyl)-4-[6-(1-propyloxy)indan-1-yl]piperazine] was tested. Which IC50 did it give?
**A.** The IC50 was 10 to 100 nM.

**Q.** Which IC50 does the source give for `COc1ccc2c(c1)C(N1CCN(C(=O)c3sccc3Br)CC1)CC2` (single isomer, unassigned; (-)) [(-)1-[(3-Bromothien-2-yl)carbonyl]-4-(6-Methoxy-indan-1-yl)piperazine] here?
**A.** The IC50 was less than 10 nM.

**Q.** Which IC50 does the source give for `C=CCCC(=O)N1CCN(C2CCc3ccc(OC)cc32)CC1` (single isomer, unassigned; (-)) [(-)-4-(6-Methoxy-indan-1-yl)-1-(4-pentenoyl)piperazine] here?
**A.** Its IC50 is 100 to 250 nM.

**Q.** `COc1ccc2c(c1)C(N1CCN(C(=O)C3(C)CCCCC3)CC1)CC2` (single isomer, unassigned; (-)) [(-)-1-[(1-Methylcyclohexyl)carbonyl]-4-(6-methoxy-indan-1-yl)piperazine] was tested. Which IC50 did it give?
**A.** Its IC50 is 100 to 250 nM.

**Q.** Which IC50 does the source give for `COc1ccc2c(c1)C(N1CCN(C(=O)c3ccsc3)CC1)CC2` (single isomer, unassigned; (-)) [(-)-4-(6-Methoxy-indan-1-yl)-1-[(3-thienyl)carbonyl]piperazine] here?
**A.** Its IC50 is less than 10 nM.

**Q.** `COc1ccc2c(c1)C(N1CCN(C(=O)C3CC3)CC1)CCC2` (stereo not shown) [1-(Cyclopropylcarbonyl)-4-(7-methoxy-tetralin-1-yl)piperazine] was tested. Which IC50 did it give?
**A.** The IC50 was 100 to 250 nM.

**Q.** `COc1ccc2c(c1)C(N1CCN(C(=O)c3ccc[nH]3)CC1)CC2` (single isomer, unassigned; (-)) [(-)-4-(6-Methoxy-indan-1-yl)-1-[(1H-pyrrol-2-yl)carbonyl]-piperazine] was tested. Which IC50 did it give?
**A.** Its IC50 is 10 to 100 nM.

**Q.** With `CC(=O)NCCc1c(Cc2ccccc2)[nH]c2ccccc12` [Luzindole, reference compound] as the compound, how does the IC50 read?
**A.** The IC50 was 100 to 250 nM.

**Q.** How did the IC50 turn out when `CCOc1ccc2c(c1)C(N1CCN(C(=O)C3CC3)CC1)CC2` (stereo not shown) [1-(Cyclopropylcarbonyl)-4-(6-ethoxy-indan-1-yl)piperazine] was run?
**A.** Its IC50 is less than 10 nM.

**Q.** Which IC50 does the source give for `CCNC(=O)N1CCN(C2CCc3cc(F)c(OC)cc32)CC1` (stereo not shown) [N-Ethyl-4-(5-fluoro-6-methoxy-indan-1-yl)piperazine-1-carboxamide] here?
**A.** Its IC50 is 10 to 100 nM.

**Q.** For `C=CCCCCCCCCC(=O)N1CCN(C2CCc3ccc(OC)cc32)CC1` (single isomer, unassigned; (-)) [(-)-4-(6-Methoxy-indan-1-yl)-1-(10-undecenoyl)piperazine], which IC50 is on record?
**A.** The IC50 was 100 to 250 nM.

**Q.** With `COc1ccc2c(c1)C(N1CCN(C(=O)c3ccoc3)CC1)CC2` (single isomer, unassigned; (-)) [(-)-1-[(3-Furanyl)carbonyl]-4-(6-methoxy-indan-1-yl)piperazine] as the compound, how does the IC50 read?
**A.** Its IC50 is 10 to 100 nM.

**Q.** For `CNC(=O)N1CCN(C2CCc3cc(F)c(OC)cc32)CC1` (stereo not shown) [N-Methyl-4-(5-fluoro-6-methoxy-indan-1-yl)piperazine-1-carboxamide], which IC50 is on record?
**A.** The IC50 was 10 to 100 nM.

**Q.** With `CCCOc1ccc2c(c1)C(N1CCN(C(=O)NCC)CC1)CC2` (stereo not shown) [N-Ethyl-4-(6-propyloxy-indan-1-yl)piperazine-1-carboxamide] as the compound, how does the IC50 read?
**A.** Its IC50 is 10 to 100 nM.

**Q.** With `COc1ccc2c(c1)C(N1CCN(C(=O)c3cc(Br)c(Br)s3)CC1)CC2` (single isomer, unassigned; (-)) [(-)-1-[(4,5-Dibromo-thien-2-yl)carbonyl]-4-(6-methoxy-indan-1-yl)piperazine] as the compound, how does the IC50 read?
**A.** Its IC50 is 100 to 250 nM.

**Q.** With `CCCCCCCCCOc1ccc2c(c1)C(N1CCN(C(=O)C3CC3)CC1)CC2` (stereo not shown) [1-(Cyclopropylcarbonyl)-4-(6-nonyloxy-indan-1-yl)piperazine] as the compound, how does the IC50 read?
**A.** Its IC50 is 100 to 250 nM.

**Q.** `COc1ccc2c(c1)C(N1CCN(C(=O)C(C)C)CC1)CC2` (stereo not shown) [4-(6-Methoxy-indan-1-yl)-1-(2-methyl-propanoyl)piperazine] was tested. Which IC50 did it give?
**A.** The IC50 was < 10 nM and 100 to 250 nM.
